These results are taken from US20120165206A1, “Method and Assay for Glycosylation Pattern Detection Related to Cell State” (priority 2006, published 2012).

The test system of one test is 3T3L1 cells. Put plainly: Lectin array glycoanalysis (Qproteome Glycoprofiling Kit) of membrane proteins of 3T3L1 cells treated with DMJ. It is filed as cell-based, mouse. The settings on record: pre-confluent 3T3L1 cells, 800 ug/ml DMJ, 3 days, FIG. 4. The procedure: (§1) Lectins with differing, well-characterized glycan-binding specificities are spotted on the surface of an array. The array is probed with a biotinylated membrane glycoprotein mixture and washed to reduce background. Bound biotinylated glycoproteins are visualized with Cy®3-labeled streptavidin using a microarray scanner. Following scanning, the resulting images are analyzed using Qiagen GlycoAnalyzer Software.
(§2) Each lectin is printed on the slides at seven concentrations. The analysis provides a lectin fingerprint for each sample: a histogram in which each bar represents the slope of the dose-response curve observed for each lectin. […] All fingerprints in an experiment are preferably normalized to the fingerprint of the reference sample. Microarray technologies generally require normalization between slides to adjust for variations that arise from technology, rather than from biological differences. The normalization in Qproteome Glycoprofiling Kits is preferably based on a robust-regression algorithm (using MM-estimators; please see Example 9 for a description).
Materials and Methods: Pre-confluent 3T3L1 cells were incubated for 3 days in the presence or absence of 800 ug/ml DMJ. Cells were then harvested and analyzed with the Qproteome Glycoprofiling Kit (Qiagen USA; the assay was performed as described in the kit manual according to manufacturer's instructions).

Another test deals with PC12 cells. Kind of test: Lectin array glycoanalysis (Qproteome Glycoprofiling Kit) of membrane proteins of PC12 cells treated with BFA. Type of test: cell-based. The settings on record: 12 ug/ml BFA, 24 h. The procedure:
as §1, §2
Materials and Methods: PC12 cells were treated with 12 ug/ml BFA for 24 h. […] Cells were then harvested and analyzed with the Qproteome Glycoprofiling Kit (Qiagen USA; the assay was performed as described in the kit manual according to manufacturer's instructions).

Turning to `OC[C@H]1NC[C@@H](O)[C@@H](O)[C@@H]1O` [DMJ, 1-deoxymannojirimycin], in the test on 3T3L1 cells (vs non-treated cells), the “antennarity (lectins that bind N-linked complex antennary structures)” value is given as “strongly reduced” and the “signals from all oligomannose binding lectins (high mannose glycans)” value is listed as “significantly increased”. Besides, the “sugars found on antennae termini such as beta galactose and sialic acid” value in the test with 3T3L1 cells is “decrease”.

For the compound `C[C@H]1CCC/C=C/[C@@H]2C[C@H](O)C[C@H]2[C@H](O)/C=C/C(=O)O1` [BFA, Brefeldin A], the “cell morphology / attachment” value in the test with PC12 cells is “morphological changes were observed and cells were detached”. In the test on PC12 cells (FIG. 3), the “antennarity of the membrane glycoproteins (lectin that binds N-linked complex antennary structures)” value was “significant decrease”; the “signals from lectins recognizing terminal sugars such as alpha-galactose, beta-galactose, sialic acid and fucose” value is on record as “Decreases”.
